According to patent US4861788A, “Antibacterial 1-normon-2-yl-heterocyclic compounds” (Beecham Group plc, priority 1983, dated 1989):
In brackets after ≈: the same amount, converted by molar mass. Where two headings read alike, the source gives them in different places.

How the values were obtained:
[1] = system: M. hyopneumoniae NB12; assay: MIC against Mycoplasma in vitro (Friis broth with agarose); format: cell-based; conditions: Mesomycoplasma hyopneumoniae, 144 h; M. hyopneumoniae NB12; 6 days at 37° C; read-out: MIC
[2] = system: M. hyopneumoniae HK (2); assay: as above; format: cell-based; conditions: Mesomycoplasma hyopneumoniae, 144 h
[3] = system: M. hyopneumoniae PW/C/210; assay: as above; format: cell-based; conditions: Mesomycoplasma hyopneumoniae, 144 h; M. hyopneumoniae PW/C/210; 6 days at 37° C; read-out: MIC
[4] = system: M. hyopneumoniae LABER; assay: as above; format: cell-based; conditions: Mesomycoplasma hyopneumoniae, 144 h
[5] = system: M. hyorhinis ATCC 23234; assay: as above; format: cell-based; conditions: Mesomycoplasma hyorhinis, ATCC23234, 144 h
[6] = system: Bacillus subtilis 6633; assay: MIC against human bacteria in vitro (nutrient agar, chocolated horse blood); format: cell-based; conditions: human; Bacillus subtilis 6633; 18 hours at 37° C; read-out: MIC
Description: (§1) The activity of the normonyl derivaties of the Examples against various bacteria which are important in diseases of humans, was assayed in vitro using serial dilutions in nurient agar with 5% chocolated horse blood.

[7] = system: Corynebacterium xerosis 9755; assay: as above; format: cell-based; conditions: human; Corynebacterium xerosis 9755; 18 hours at 37° C; read-out: MIC
Description: as §1

[8] = system: E. coli ESS; assay: as above; format: cell-based; conditions: Escherichia coli; human; E. coli ESS; 18 hours at 37° C; read-out: MIC
Description: as §1

[9] = system: E. coli NCTC 10418; assay: as above; format: cell-based; conditions: Escherichia coli, NCTC10418; human; E. coli NCTC 10418; 18 hours at 37° C; read-out: MIC
Description: as §1

[10] = system: Haemophilus influenzae Wy21; assay: as above; format: cell-based
Description: as §1

[11] = system: K. aerogenes A; assay: as above; format: cell-based; conditions: Klebsiella aerogenes; human; K. aerogenes A; 18 hours at 37° C; read-out: MIC
Description: as §1

[12] = system: P. mirabilis 889; assay: as above; format: cell-based; conditions: Proteus mirabilis; human; P. mirabilis 889; 18 hours at 37° C; read-out: MIC
Description: as §1

[13] = system: Pasteurella multocida 1633; assay: as above; format: cell-based; conditions: human; Pasteurella multocida 1633; 18 hours at 37° C; read-out: MIC
Description: as §1

[14] = system: Ps. aeruginosa NCTC 10662; assay: as above; format: cell-based; conditions: Pseudomonas aeruginosa, NCTC10662; human; Ps. aeruginosa NCTC 10662; 18 hours at 37° C; read-out: MIC
Description: as §1

[15] = system: Sarcina lutea 8340; assay: as above; format: cell-based; conditions: Micrococcus luteus; human; Sarcina lutea 8340; 18 hours at 37° C; read-out: MIC
Description: as §1

[16] = system: Staph. aureus Oxford; assay: as above; format: cell-based; conditions: Staphylococcus aureus
Description: as §1

[17] = system: Staph. aureus Russell; assay: as above; format: cell-based; conditions: Staphylococcus aureus; human; Staph. aureus Russell; 18 hours at 37° C; read-out: MIC
Description: as §1

[18] = system: Staph. aureus W2827; assay: as above; format: cell-based; conditions: Staphylococcus aureus; human; Staph. aureus W2827; 18 hours at 37° C; read-out: MIC
Description: as §1

[19] = system: Strep. agalactiae 2788-B; assay: as above; format: cell-based; conditions: Streptococcus agalactiae; human; Strep. agalactiae 2788-B; 18 hours at 37° C; read-out: MIC
Description: as §1

[20] = system: Strep. faecalis I; assay: as above; format: cell-based; conditions: Enterococcus faecalis; human; Strep. faecalis I; 18 hours at 37° C; read-out: MIC
Description: as §1

[21] = system: Strep. pyogenes R80/421-A; assay: as above; format: cell-based; conditions: Streptococcus pyogenes; human; Strep. pyogenes R80/421-A; 18 hours at 37° C; read-out: MIC
Description: as §1

[22] = system: Strep. spp. 64/848-C; assay: as above; format: cell-based; conditions: human; Strep. spp. 64/848-C; 18 hours at 37° C; read-out: MIC
Description: as §1

[23] = system: S. dublin S7; assay: MIC against veterinary bacteria in vitro (Diagnostic Sensitivity Test Agar); conditions: Salmonella enterica, S7, 18 h
Description: (§2) The activity of the normonyl derivatives of the Examples against various veterinarily important bacteria, was assayed in vitro using two-fold serial dilutions in Diagnostic Sensitivity Test Agar inoculated with 10^4 organisms.

[24] = system: Past. haemolytica PA5; assay: as above; conditions: Mannheimia haemolytica, PA5, 18 h
Description: as §2

[25] = system: Staph. aureus Oxford; assay: as above; conditions: Staphylococcus aureus, 18 h
Description: as §2

[26] = system: Neisseria catarrhalis 1502; assay: MIC against human bacteria in vitro (nutrient agar, chocolated horse blood); format: cell-based
Description: as §1

[27] = system: B. subtilis ATCC 6633; assay: MIC against veterinary bacteria in vitro (Diagnostic Sensitivity Test Agar); conditions: Bacillus subtilis, ATCC6633, 18 h
Description: as §2

[28] = M. hyopneumoniae HK (2), 6 days at 37° C, read-out: MIC
[29] = M. hyopneumoniae LABER, 6 days at 37° C, read-out: MIC
[30] = M. hyorhinis ATCC 23234, 6 days at 37° C, read-out: MIC
[31] = human, Haemophilus influenzae Wy21, 18 hours at 37° C, read-out: MIC
[32] = human, Staph. aureus Oxford, 18 hours at 37° C, read-out: MIC
[33] = human, Neisseria catarrhalis 1502, 18 hours at 37° C, read-out: MIC

| SMILES | MIC [5, 30] [µg/mL] | MIC [6] [µg/mL] | MIC [7] [µg/mL] | MIC [8] [µg/mL] | MIC [9] [µg/mL] | MIC [10, 31] [µg/mL] | MIC [11] [µg/mL] | MIC [12] [µg/mL] | MIC [13] [µg/mL] | MIC [14] [µg/mL] | MIC [15] [µg/mL] | MIC [16, 32] [µg/mL] | MIC [17] [µg/mL] | MIC [18] [µg/mL] | MIC [19] [µg/mL] | MIC [20] [µg/mL] | MIC [22] [µg/mL] | MIC [23] [µg/mL] | MIC [24] [µg/mL] | MIC [25] [µg/mL] | also measured |
| --- | --- | --- | --- | --- | --- | --- | --- | --- | --- | --- | --- | --- | --- | --- | --- | --- | --- | --- | --- | --- | --- |
| CSc1ccc(-c2nnc(C=C(C)CC3OCC(CC4OC4C(C)C(C)O)C(O)C3O)o2)cc1 (centres unmarked) [Example 3, 2-p-Methylthiophenyl-5-(1-normon-2-yl)-1,3,4-oxadiazole A] | 0.5 (≈ 1.02 µM) | 4 (≈ 8.15 µM) | > 128 | 4 (≈ 8.15 µM) | > 128 | 2 (≈ 4.08 µM) | > 128 | > 128 | 8 (≈ 16.3 µM) | > 128 | > 128 | 8 (≈ 16.3 µM) | 8 (≈ 16.3 µM) | 8 (≈ 16.3 µM) | 32 (≈ 65.2 µM) | > 128 | 16 (≈ 32.6 µM) | > 80 | 20 (≈ 40.8 µM) | 5 (≈ 10.2 µM) | MIC [1]: 1 µg/mL (≈ 2.04 µM); MIC [2, 28]: 1 µg/mL (≈ 2.04 µM); MIC [3]: 0.5 µg/mL (≈ 1.02 µM); MIC [4, 29]: 1 µg/mL (≈ 2.04 µM); MIC [21]: 16 µg/mL (≈ 32.6 µM) |
| CC(=Cc1nnc(-c2cccs2)o1)CC1OCC(CC2OC2C(C)C(C)O)C(O)C1O (centres unmarked) [Example 6, 2-(1-Normon-2-yl)-5-(2-thienyl)-1,3,4-oxadiazole A] | – | 4 (≈ 8.88 µM) | 128 (≈ 284 µM) | 8 (≈ 17.8 µM) | > 128 | 2 (≈ 4.44 µM) | > 128 | > 128 | 2 (≈ 4.44 µM) | > 128 | 32 (≈ 71 µM) | 8 (≈ 17.8 µM) | 16 (≈ 35.5 µM) | 16 (≈ 35.5 µM) | 32 (≈ 71 µM) | > 128 | 32 (≈ 71 µM) | > 80 | 20 (≈ 44.4 µM) | 10 (≈ 22.2 µM) | MIC [2]: 5 µg/mL (≈ 11.1 µM); MIC [4]: 2.5 µg/mL (≈ 5.55 µM); MIC [5]: 2.5 µg/mL (≈ 5.55 µM); MIC [21]: 16 µg/mL (≈ 35.5 µM) |
| CC(=Cc1nnc(-c2ccncc2)o1)CC1OCC(CC2OC2C(C)C(C)O)C(O)C1O (centres unmarked) [Example 7, 2-(1-Normon-2-yl)-5-(4-pyridyl)-1,3,4-oxadiazole A] | 0.5 (≈ 1.12 µM) | 2 (≈ 4.49 µM) | – | 64 (≈ 144 µM) | > 128 | – | 128 (≈ 287 µM) | – | > 128 | > 128 | > 128 | 2 (≈ 4.49 µM) | 32 (≈ 71.8 µM) | 32 (≈ 71.8 µM) | 8 (≈ 18 µM) | > 128 | 8 (≈ 18 µM) | > 80 | 20 (≈ 44.9 µM) | > 80 | MIC ([10]; Haemophilus influenzae, WY21, 18 h): 1 µg/mL (≈ 2.24 µM); MIC [26, 33]: 0.25 µg/mL (≈ 0.561 µM); MIC [27]: 2.5 µg/mL (≈ 5.61 µM) |
| CC(=Cc1nnc(-c2ccco2)o1)CC1OCC(CC2OC2C(C)C(C)O)C(O)C1O (centres unmarked) [Example 8, 2-(2-Furyl)-5-(1-normon-2-yl)-1,3,4-oxadiazole A] | 2.5 (≈ 5.75 µM) | 4 (≈ 9.21 µM) | – | 8 (≈ 18.4 µM) | > 128 | 0.25 (≈ 0.575 µM) | > 128 | > 128 | 1 (≈ 2.3 µM) | > 128 | > 128 | 4 (≈ 9.21 µM) | 64 (≈ 147 µM) | 32 (≈ 73.6 µM) | 32 (≈ 73.6 µM) | > 128 | 32 (≈ 73.6 µM) | > 80 | 40 (≈ 92.1 µM) | 80 (≈ 184 µM) | MIC [2, 28]: 10 µg/mL (≈ 23 µM); MIC [26, 33]: 0.5 µg/mL (≈ 1.15 µM); MIC [27]: 10 µg/mL (≈ 23 µM) |
| CC(=Cc1nnc(-c2ccc(N(C)C)cc2)o1)CC1OCC(CC2OC2C(C)C(C)O)C(O)C1O (centres unmarked) [Example 10, 2-(4-Dimethylaminophenyl)-5-(1-normon-2-yl)-1,3,4-oxadiazole A] | – | 2 (≈ 4.1 µM) | – | 2 (≈ 4.1 µM) | > 128 | 2 (≈ 4.1 µM) | > 128 | > 128 | 16 (≈ 32.8 µM) | > 128 | > 128 | – | 4 (≈ 8.2 µM) | 4 (≈ 8.2 µM) | 16 (≈ 32.8 µM) | > 128 | 16 (≈ 32.8 µM) | > 80 | 40 (≈ 82 µM) | 20 (≈ 41 µM) | MIC [2]: 5 µg/mL (≈ 10.3 µM); MIC [5]: 1 µg/mL (≈ 2.05 µM); MIC ([26]; Neisseria, 1502, 18 h): 0.5 µg/mL (≈ 1.03 µM); MIC ([16]; 18 h): 1 µg/mL (≈ 2.05 µM); MIC [27]: 5 µg/mL (≈ 10.3 µM) |
| CC(=Cc1nc(-c2ccccc2)no1)CC1OCC(CC2OC2C(C)C(C)O)C(O)C1O (centres unmarked) [Example 15, 5-(1-Normon-2-yl)-3-phenyl-1,2,4-oxadiazole A] | 5 (≈ 11.2 µM) | 32 (≈ 72 µM) | > 128 | 8 (≈ 18 µM) | > 128 | 4 (≈ 9 µM) | > 128 | > 128 | 64 (≈ 144 µM) | > 128 | > 128 | 16 (≈ 36 µM) | 32 (≈ 72 µM) | 32 (≈ 72 µM) | 64 (≈ 144 µM) | > 128 | 64 (≈ 144 µM) | > 80 | > 80 | 40 (≈ 90 µM) | MIC [1]: 10 µg/mL (≈ 22.5 µM); MIC [2, 28]: 10 µg/mL (≈ 22.5 µM); MIC [3]: 5 µg/mL (≈ 11.2 µM); MIC [4, 29]: 5 µg/mL (≈ 11.2 µM); MIC [21]: 32 µg/mL (≈ 72 µM) |
| CC(=Cc1nc(-c2ccc([N+](=O)[O-])cc2)no1)CC1OCC(CC2OC2C(C)C(C)O)C(O)C1O (centres unmarked) [Example 16, 5-(1-Normon-2-yl)-3-(4-nitrophenyl)-1,2,4-oxadiazole] | 0.25 (≈ 0.511 µM) | 16 (≈ 32.7 µM) | > 64 | 8 (≈ 16.3 µM) | > 64 | 4 (≈ 8.17 µM) | > 64 | > 64 | 32 (≈ 65.4 µM) | > 64 | > 64 | 16 (≈ 32.7 µM) | 16 (≈ 32.7 µM) | 16 (≈ 32.7 µM) | 32 (≈ 65.4 µM) | > 64 | 32 (≈ 65.4 µM) | > 80 | 20 (≈ 40.9 µM) | 2.5 (≈ 5.11 µM) | MIC [4]: 0.25 µg/mL (≈ 0.511 µM); MIC [21]: 32 µg/mL (≈ 65.4 µM); MIC [27]: 2.5 µg/mL (≈ 5.11 µM) |
| CC(=Cc1noc(-c2ccccc2)n1)CC1OCC(CC2OC2C(C)C(C)O)C(O)C1O (centres unmarked) [Example 17, 3-(1-Normon-2-yl)-5-phenyl-1,2,4-oxadiazole] | 2.5 (≈ 5.62 µM) | 2 (≈ 4.5 µM) | > 128 | 4 (≈ 9 µM) | > 128 | 1 (≈ 2.25 µM) | > 128 | > 128 | 16 (≈ 36 µM) | > 128 | > 128 | 4 (≈ 9 µM) | 4 (≈ 9 µM) | 4 (≈ 9 µM) | 8 (≈ 18 µM) | > 128 | 8 (≈ 18 µM) | > 80 | 80 (≈ 180 µM) | 2.5 (≈ 5.62 µM) | MIC [21]: 4 µg/mL (≈ 9 µM); MIC [27]: 0.625 µg/mL (≈ 1.41 µM) |
